Assay results from publication PMC11233931, “Remodeling tumor‐associated macrophage for anti‐cancer effects by rational design of irreversible inhibition of mitogen‐activated protein kinase‐activated protein kinase 2” (MedComm, 2024).
Read-outs that look alike come from different tables or passages of the source.

Experiments:
Assay in all cases: Eurofins kinase selectivity profile against 380 other human recombinant kinases (Table S2)
Assay type in all cases: biochemical
[1] = target: T1, 380 human recombinant protein kinases (Homo sapiens, UniProt O60331); details: PIP5K1γ(h), read-out: Inhibition rate (%)
T1 construct: purchased Eurofins (Celle Lévescault)
T1 sequence (O60331 whole entry): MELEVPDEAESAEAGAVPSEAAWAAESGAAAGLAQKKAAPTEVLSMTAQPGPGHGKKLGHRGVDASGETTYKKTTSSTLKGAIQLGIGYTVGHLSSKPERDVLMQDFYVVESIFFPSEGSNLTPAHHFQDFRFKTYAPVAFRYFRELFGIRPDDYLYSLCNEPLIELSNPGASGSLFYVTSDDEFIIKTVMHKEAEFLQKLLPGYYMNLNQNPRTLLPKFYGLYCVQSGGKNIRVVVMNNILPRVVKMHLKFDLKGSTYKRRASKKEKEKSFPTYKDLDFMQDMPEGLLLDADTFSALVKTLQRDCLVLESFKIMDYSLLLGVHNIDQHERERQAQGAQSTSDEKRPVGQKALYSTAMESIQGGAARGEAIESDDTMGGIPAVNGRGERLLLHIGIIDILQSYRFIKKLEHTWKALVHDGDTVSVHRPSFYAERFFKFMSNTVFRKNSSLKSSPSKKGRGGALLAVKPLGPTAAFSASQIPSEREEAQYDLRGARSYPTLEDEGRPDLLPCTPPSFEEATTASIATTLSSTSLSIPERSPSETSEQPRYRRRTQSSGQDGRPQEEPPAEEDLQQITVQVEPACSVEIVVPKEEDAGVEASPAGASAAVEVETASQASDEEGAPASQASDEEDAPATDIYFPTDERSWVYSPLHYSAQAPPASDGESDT
Summary of the method: (§1)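 Values come from a contract kinase-profiling service that tested the compound at multiple concentrations across 380 recombinant human kinases, as an off-target check against the MK2 activity.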

[2] = target: T2, 380 human recombinant protein kinases (Homo sapiens, UniProt P42345); details: read-out: Inhibition rate; for inhibition at 0.01 µM: 10 nM; for inhibition at 0.1 µM: 100 nM; for inhibition at 1 µM: 1000 nM
T2 construct: purchased Eurofins (Celle Lévescault)
Summary of the method: as §1

[3] = target: T3, 380 human recombinant protein kinases (Homo sapiens, UniProt Q8IYT8); details: ULK2(h), read-out: Inhibition rate (%)
T3 construct: purchased Eurofins (Celle Lévescault)
T3 sequence (Q8IYT8 1-1036): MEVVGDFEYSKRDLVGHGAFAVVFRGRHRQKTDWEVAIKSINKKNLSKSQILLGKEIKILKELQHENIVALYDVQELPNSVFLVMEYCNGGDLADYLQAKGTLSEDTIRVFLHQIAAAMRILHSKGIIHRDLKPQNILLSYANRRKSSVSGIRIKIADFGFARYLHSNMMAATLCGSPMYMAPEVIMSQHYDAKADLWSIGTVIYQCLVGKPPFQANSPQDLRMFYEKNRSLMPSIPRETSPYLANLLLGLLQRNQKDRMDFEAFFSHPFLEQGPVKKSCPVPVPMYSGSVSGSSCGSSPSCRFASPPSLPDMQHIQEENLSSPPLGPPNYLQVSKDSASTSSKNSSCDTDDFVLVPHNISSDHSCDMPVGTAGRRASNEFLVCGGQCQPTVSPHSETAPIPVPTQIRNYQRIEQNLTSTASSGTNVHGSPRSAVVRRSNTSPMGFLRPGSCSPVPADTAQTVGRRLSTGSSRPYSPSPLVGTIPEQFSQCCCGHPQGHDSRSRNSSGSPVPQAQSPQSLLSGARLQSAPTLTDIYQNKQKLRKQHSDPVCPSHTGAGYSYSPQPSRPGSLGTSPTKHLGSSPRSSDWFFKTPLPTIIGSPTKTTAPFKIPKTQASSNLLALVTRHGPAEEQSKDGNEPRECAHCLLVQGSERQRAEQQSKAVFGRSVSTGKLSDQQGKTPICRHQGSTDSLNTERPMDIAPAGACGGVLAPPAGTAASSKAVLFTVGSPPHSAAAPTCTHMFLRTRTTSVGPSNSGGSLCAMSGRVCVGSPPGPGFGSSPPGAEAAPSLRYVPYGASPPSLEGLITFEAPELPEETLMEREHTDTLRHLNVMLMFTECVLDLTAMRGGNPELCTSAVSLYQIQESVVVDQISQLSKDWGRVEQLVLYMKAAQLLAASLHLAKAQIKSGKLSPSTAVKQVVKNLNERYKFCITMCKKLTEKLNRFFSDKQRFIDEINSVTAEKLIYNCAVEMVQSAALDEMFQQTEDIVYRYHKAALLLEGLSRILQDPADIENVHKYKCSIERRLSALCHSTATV
Summary of the method: as §1

[4] = target: T4, 380 human recombinant protein kinases (Homo sapiens, UniProt P30530); details: Axl(h), read-out: Inhibition rate
T4 construct: purchased Eurofins (Celle Lévescault)
T4 sequence (P30530 26-894): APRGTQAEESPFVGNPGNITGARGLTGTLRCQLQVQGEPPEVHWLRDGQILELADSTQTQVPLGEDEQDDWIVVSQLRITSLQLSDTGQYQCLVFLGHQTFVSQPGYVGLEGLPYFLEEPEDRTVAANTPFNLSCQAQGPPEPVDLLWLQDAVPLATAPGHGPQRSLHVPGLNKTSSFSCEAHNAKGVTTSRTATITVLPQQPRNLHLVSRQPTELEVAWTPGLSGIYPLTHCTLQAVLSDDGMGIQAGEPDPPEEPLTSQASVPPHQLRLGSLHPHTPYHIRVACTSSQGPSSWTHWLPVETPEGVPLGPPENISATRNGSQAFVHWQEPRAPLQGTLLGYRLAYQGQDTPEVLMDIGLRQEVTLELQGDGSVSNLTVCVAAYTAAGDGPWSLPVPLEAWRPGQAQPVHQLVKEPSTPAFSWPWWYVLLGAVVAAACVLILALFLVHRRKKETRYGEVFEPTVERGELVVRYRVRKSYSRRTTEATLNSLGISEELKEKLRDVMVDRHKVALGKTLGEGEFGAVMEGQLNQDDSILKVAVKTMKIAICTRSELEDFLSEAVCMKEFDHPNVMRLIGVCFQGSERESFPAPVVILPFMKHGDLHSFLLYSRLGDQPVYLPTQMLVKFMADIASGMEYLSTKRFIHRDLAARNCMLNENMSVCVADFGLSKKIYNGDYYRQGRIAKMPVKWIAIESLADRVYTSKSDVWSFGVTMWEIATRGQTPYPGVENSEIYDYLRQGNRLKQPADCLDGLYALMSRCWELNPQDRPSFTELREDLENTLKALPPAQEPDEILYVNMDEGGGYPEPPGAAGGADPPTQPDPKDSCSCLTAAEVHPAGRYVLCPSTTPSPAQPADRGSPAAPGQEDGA
Summary of the method: as §1

[5] = target: T5, 380 human recombinant protein kinases (Homo sapiens, UniProt Q13535); details: ATR/ATRIP(h), read-out: Inhibition rate (%)
T5 construct: purchased Eurofins (Celle Lévescault)
T5 sequence (Q13535 whole entry): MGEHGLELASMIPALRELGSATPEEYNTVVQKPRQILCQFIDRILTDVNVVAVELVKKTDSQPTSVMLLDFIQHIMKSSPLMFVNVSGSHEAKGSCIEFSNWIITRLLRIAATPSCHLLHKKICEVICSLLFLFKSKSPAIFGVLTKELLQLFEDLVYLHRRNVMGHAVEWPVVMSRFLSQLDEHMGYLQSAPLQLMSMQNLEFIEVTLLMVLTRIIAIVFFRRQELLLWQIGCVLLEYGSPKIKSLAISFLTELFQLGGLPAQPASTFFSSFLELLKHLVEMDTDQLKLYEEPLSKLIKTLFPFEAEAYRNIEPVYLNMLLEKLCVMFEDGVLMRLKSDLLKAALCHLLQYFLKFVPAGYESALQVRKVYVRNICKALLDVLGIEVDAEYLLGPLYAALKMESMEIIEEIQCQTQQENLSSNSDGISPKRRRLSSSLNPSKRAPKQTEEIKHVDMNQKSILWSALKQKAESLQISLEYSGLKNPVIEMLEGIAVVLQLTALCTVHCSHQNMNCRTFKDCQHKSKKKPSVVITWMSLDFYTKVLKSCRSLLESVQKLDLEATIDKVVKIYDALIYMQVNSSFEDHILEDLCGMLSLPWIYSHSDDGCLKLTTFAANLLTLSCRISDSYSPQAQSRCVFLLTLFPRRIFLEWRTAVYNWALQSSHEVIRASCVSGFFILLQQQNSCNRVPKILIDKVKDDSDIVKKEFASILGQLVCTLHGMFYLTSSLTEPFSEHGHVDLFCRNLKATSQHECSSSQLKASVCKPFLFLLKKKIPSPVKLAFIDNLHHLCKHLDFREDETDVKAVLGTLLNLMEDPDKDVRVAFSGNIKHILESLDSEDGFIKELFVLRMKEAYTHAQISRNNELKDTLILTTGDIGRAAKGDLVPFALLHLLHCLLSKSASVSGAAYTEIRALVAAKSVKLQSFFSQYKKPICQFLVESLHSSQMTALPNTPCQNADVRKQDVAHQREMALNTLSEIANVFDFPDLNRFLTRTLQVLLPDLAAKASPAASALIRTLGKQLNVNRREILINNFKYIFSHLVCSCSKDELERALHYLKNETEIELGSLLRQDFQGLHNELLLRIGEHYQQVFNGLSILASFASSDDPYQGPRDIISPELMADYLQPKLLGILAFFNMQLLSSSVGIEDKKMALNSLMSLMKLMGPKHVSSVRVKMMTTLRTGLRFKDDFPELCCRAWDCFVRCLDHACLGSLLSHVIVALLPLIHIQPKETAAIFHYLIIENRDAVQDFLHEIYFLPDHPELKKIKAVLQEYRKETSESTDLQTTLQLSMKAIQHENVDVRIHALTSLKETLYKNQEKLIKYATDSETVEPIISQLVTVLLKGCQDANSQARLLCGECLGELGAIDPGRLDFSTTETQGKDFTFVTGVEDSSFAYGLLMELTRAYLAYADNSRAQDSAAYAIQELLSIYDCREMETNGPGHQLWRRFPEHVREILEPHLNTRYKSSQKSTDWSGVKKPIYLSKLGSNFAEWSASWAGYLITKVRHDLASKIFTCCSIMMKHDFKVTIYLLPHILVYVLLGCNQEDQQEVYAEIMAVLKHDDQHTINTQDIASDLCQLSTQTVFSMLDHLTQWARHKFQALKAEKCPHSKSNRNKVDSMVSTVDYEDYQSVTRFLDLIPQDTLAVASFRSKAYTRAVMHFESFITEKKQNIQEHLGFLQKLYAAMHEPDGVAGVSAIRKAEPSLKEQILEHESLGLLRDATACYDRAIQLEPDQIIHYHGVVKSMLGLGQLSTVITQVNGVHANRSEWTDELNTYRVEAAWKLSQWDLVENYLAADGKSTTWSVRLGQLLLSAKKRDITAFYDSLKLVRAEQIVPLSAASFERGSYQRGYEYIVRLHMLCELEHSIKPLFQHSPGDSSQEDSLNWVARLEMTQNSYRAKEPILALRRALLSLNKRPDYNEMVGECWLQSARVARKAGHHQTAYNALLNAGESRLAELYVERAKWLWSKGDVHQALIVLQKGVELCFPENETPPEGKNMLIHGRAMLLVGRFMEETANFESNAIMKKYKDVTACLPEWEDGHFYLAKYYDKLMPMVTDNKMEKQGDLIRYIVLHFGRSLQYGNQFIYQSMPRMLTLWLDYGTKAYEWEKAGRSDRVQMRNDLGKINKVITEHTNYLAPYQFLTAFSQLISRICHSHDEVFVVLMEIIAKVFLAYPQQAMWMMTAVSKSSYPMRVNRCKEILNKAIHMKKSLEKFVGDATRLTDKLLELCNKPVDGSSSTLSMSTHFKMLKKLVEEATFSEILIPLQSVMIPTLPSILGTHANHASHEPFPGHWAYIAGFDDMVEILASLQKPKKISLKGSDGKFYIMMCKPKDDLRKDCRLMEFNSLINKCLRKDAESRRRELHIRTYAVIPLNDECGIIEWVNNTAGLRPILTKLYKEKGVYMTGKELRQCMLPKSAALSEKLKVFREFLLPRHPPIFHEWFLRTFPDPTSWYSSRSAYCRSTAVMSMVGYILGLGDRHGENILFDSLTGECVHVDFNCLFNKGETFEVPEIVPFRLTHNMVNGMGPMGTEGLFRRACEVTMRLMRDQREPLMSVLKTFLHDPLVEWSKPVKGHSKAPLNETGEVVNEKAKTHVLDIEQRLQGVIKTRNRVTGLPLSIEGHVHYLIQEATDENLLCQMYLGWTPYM
Summary of the method: as §1

[6] = target: T6, 380 human recombinant protein kinases (Homo sapiens, UniProt Q9P2K8); details: GCN2(h), read-out: Inhibition rate
T6 construct: purchased Eurofins (Celle Lévescault)
T6 sequence (Q9P2K8 whole entry): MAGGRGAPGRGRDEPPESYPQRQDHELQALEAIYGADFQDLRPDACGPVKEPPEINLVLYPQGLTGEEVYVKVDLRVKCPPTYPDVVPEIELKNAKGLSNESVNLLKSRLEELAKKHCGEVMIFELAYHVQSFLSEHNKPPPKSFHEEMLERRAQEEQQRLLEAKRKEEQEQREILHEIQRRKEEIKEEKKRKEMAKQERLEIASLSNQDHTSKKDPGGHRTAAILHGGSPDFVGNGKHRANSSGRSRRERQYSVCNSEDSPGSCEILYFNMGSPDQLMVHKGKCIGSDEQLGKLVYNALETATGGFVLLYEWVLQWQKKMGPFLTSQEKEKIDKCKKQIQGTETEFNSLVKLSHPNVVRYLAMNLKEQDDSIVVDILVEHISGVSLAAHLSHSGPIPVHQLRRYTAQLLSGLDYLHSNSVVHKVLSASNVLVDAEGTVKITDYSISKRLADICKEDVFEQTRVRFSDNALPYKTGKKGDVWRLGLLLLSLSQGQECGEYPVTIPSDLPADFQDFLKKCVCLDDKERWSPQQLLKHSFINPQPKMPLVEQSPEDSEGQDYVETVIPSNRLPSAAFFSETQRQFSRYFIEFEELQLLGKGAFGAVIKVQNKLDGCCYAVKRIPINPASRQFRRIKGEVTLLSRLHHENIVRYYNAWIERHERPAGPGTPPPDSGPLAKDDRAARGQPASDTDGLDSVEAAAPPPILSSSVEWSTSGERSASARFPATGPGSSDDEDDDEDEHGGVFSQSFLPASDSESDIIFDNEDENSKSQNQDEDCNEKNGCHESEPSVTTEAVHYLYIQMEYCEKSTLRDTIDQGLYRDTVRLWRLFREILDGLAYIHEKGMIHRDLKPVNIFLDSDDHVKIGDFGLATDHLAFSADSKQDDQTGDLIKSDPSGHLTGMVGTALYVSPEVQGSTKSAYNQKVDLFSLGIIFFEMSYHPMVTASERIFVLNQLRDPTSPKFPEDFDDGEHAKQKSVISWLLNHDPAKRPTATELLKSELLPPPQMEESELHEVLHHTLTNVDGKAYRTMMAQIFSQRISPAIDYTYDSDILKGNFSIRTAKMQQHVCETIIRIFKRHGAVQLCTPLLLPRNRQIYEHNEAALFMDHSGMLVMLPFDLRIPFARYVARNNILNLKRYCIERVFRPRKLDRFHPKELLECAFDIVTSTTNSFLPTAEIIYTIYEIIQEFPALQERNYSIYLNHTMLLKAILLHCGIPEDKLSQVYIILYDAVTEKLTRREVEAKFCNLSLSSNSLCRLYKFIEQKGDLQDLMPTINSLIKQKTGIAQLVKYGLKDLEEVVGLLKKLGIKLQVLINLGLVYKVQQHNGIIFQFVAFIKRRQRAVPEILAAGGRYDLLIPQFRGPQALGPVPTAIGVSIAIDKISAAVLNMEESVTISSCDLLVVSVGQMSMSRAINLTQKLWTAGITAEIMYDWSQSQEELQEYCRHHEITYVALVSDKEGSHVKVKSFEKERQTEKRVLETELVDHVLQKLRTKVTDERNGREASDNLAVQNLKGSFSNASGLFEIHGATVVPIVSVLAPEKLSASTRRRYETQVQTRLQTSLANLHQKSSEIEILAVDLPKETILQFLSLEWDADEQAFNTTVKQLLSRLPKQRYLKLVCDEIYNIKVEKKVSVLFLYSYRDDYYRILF
Summary of the method: as §1

[7] = target: T7, 380 human recombinant protein kinases (Homo sapiens, UniProt P51617); details: IRAK1(h), read-out: Inhibition rate
T7 construct: purchased Eurofins (Celle Lévescault)
Summary of the method: as §1

C=CC(=O)Nc1cc(-c2cc(-c3cc4c([nH]3)CCNC4=O)ccn2)ccc1OC(F)(F)F [compound 11]
inhibition at 0.01 µM ([1]; 10 nM): 0% | inhibition at 0.1 µM ([1]; 100 nM): -1% | inhibition at 1 µM ([1]; 1000 nM): 3% | inhibition at 0.01 µM ([2]; mTOR(h)): -1% | inhibition at 0.1 µM ([2]; mTOR(h)): 2% | inhibition at 1 µM ([2]; mTOR(h)): 7% | inhibition at 0.01 µM ([2]; mTOR/FKBP12(h)): 8% | inhibition at 0.1 µM ([2]; mTOR/FKBP12(h)): 12% | inhibition at 1 µM ([2]; mTOR/FKBP12(h)): 6% | inhibition at 0.01 µM ([3]; 10 nM): 6% | inhibition at 0.1 µM ([3]; 100 nM): 6% | inhibition at 1 µM ([3]; 1000 nM): 5% | inhibition at 0.01 µM ([4]; 10 nM): -21% | inhibition at 0.1 µM ([4]; 100 nM): -6% | inhibition at 1 µM ([4]; 1000 nM): 26% | inhibition at 0.01 µM ([5]; 10 nM): -15% | inhibition at 0.1 µM ([5]; 100 nM): -17% | inhibition at 1 µM ([5]; 1000 nM): -20% | inhibition at 0.01 µM ([6]; 10 nM): 7% | inhibition at 0.1 µM ([6]; 100 nM): 9% | inhibition at 1 µM ([6]; 1000 nM): 5% | inhibition at 0.01 µM ([7]; 10 nM): -1% | inhibition at 0.1 µM ([7]; 100 nM): 3% | inhibition at 1 µM ([7]; 1000 nM): 34%
